# In patent publication US20070202062A1, “Natural deodorant compositions comprising renewably-based, biodegradable 1,3-propanediol” (priority 2006, published 2007):
# Tests used:
# [1] = Glycerine vs Bio-PDO - Efficacy (deodorant actives, in vivo human)
# [2] = Glycerine vs Bio-PDO - Stability (Efficacy/shelf-life); conditions: active in GLYCERINE; in vivo (human)
# [3] = Glycerine vs Bio-PDO - Stability (Shrinkage - 3 months); type: physicochemical
# [4] = Glycerine vs Bio-PDO - Irritation (in vivo human)
Molecule,"Efficacy, # hours ([1]; active in Bio-PDO) [h]","Efficacy, # hours ([1]; active in GLYCERINE) [h]","Stability (Efficacy/shelf-life), # months [2] [months]","Stability (Shrinkage - 3 months), % in product ([3]; active in Bio-PDO) [%]","Stability (Shrinkage - 3 months), % in product ([3]; active in GLYCERINE) [%]","Irritation, Ranking 1-10 ([4]; active in Bio-PDO)","Irritation, Ranking 1-10 ([4]; active in GLYCERINE)"
"CCCCCCCCCCCC(=O)OCC(O)CO (stereo not drawn) [GML, Glyceryl monolaurate]",12,4,6,3,0,0,0
polyglyceryl-3 caprylate [polyglycerol 3 caprylate],12,0,,,,,
